Tests used:
[1] = target: T1, USP1/UAF1 complex (Homo sapiens, UniProt O94782, G670A/G671A); assay: high throughput screening for inhibitors of USP1 deubiquitinating activity; format: biochemical; conditions: library of approximately 150,000 compounds
T1 construct: This modified full length USP1 clone was PCR amplified and subcloned into pFastBac-HT vectors; His tag (N); made in house; host or cells: Sf9 insect cells (baculovirus)
Description: The ubiquitin-Rho based enzyme assay for high throughput screening was established in a 384-well format. The reaction buffer containing and USP1/UAF1 complex were added in 384 well plates using automated liquid handling robot-Bio-Tek Microfill (Bio-Tek Instrments Inc., VT), followed by addition of the compounds (in DMSO) from the compound library plates to wells using a pin transfer robotic system at a final concentration of 10 μM. The reaction was composed of 0.1 nM purified USP1/UAF complex, 75 nM ubiquitin Rhodamine (Ub-Rho, Boston Biochem, U-600) and 2 μM ubiquitin. Fluorescence was monitored in a FluoStar Galaxy Fluorometer (BMG Labtech). Fluorescence emission at 535 nm (λex=485 nm) was measured in an automated plate reader Envision 2 (Perkin Elmer, Mass.).
In order to develop a highly sensitive assay with easy readout for high throughput detection, the fluorogenic compound Ubiquitin-7-amido-4-methylcoumarin (AMC-Ub, Boston Biochem) was used as a substrate for USP1/UAF1 enzyme complex. USP1 catalyzes the cleavage of AMC-Ub, releasing free AMC moiety, which leads to increase in fluorescence emission at 460 nm (λex=380 nm). Dang et al. (1998) Biochemistry 37:1868-79. Catalytic activity towards AMC-Ub increases 35 fold compared to USP1 enzyme alone. Initial enzyme assay development was performed in 96-well plates with 100 μl reaction volume containing 20 mM HEPES-KOH, 0.1 mg/ml ovalbumin (Sigma), 0.5 mM EDTA, and 10 mM DTT. 2.5 nM USP1/UAF1 enzyme complex was mixed with the reaction buffer, incubated at 37° C. for 10 minutes and then 0.3 μM AMC-Ub was added. Fluorescence was measured using a Fluostar Galaxy Fluorometer (BMG Labtech Inc.).
Once the preliminary enzyme assay was established in 96-well format, it was optimized for 384 wells for high throughput screening (HTS) of inhibitors. The major points to be considered were the volume of the reaction and amount of AMC-Ub substrate to be used in the assay. Since the price of AMC-Ub is very high, in order to make it a feasible assay for HTS, lowest workable amount of the AMC conjugate was used. Reaction volume was minimized to 30 μl in order to meet the recommendation of ICCB-L screening facility (Harvard). In the preliminary optimization experiment, a series of pilot experiments were performed with varying AMC-Ub concentrations (0.025 μM to 0.2 μM), along with the varying concentration of USP1/UAF1 complex (0.2 nM to 3.2 nM). […] After incubating the enzyme and buffer at 37° C. for 10 minutes, AMC-Ub was added and fluorescence emission at 460 nm (λex=380 nm) was measured in an automated plate reader Envision 2 (Perkin Elmer). Fluorescence reading for all time points up to one hour was noted and the data for different AMC-Ub concentration range was plotted with each USP1/UAF1 enzyme complex concentration. […]

[2] = system: HeLa cells; assay: sensitization of HeLa cells to mitomycin C, cell survival by redox dye; format: cell-based, human; conditions: 20 micromolar compound; MMC 0, 200, or 500 nM; FIG. 4
Description: HeLa cells were pretreated for six hours with selected concentrations (0, 200, or 500 nM) of mitomycin C (MMC), washed, then exposed to selected concentrations (0, 10, or 20 μM) of the compound of Formula IV (527) for eight hours. Cell survival was measured by redox dye.

[3] = system: U2OS-DRGFP cells; assay: DR-GFP reporter gene conversion assay for homologous recombination repair; format: cell-based; conditions: 24 h exposure; inhibition in the 0 to 5 μM range; FIG. 8A
Description: FIG. 8 is a composite figure showing that C527 inhibits homologous recombination repair. […] U2OS-DRGFP cells were transfected with I-SCE-I and then exposed to C527 at the indicated concentration for 24 h. Cells were then subjected to flow cytometry analysis. The percentage of GFP positive cells was normalized by solvent vehicle treated group. […] HeLa cells, integrated with the NHEJ reporter, were treated with C527 and analyzed as described in (FIG. 8A). […] HeLa cells were pre-treated with DMSO or C527 at the indicated concentration and then exposed to camptothecin (CPT) for 1 hr. RAD51 foci were detected using immunofluorescence.
HR repair activity was analyzed using DR-GFP reporter as previously described (Pierce A J et al, Genes Dev, 13: 2633). U2OS-DRGFP cells carrying a chromosomally integrated single copy of HR repair substrate were used to test the effect of C527 on HR. DSB-induced HR results in restoration and expression of GFP and was quantified by FACS. Briefly, 24 h after induction of chromosomal double-strand breaks through the expression of I-SceI, cells were treated with C527 for 24 h. Cells were subjected to FACS analysis and the percentage of GFP-positive cells was quantitated relative to the total viable cell number. For each analysis, 100,000 cells were processed. […]

T1 sequence (O94782 whole entry G670A/G671A): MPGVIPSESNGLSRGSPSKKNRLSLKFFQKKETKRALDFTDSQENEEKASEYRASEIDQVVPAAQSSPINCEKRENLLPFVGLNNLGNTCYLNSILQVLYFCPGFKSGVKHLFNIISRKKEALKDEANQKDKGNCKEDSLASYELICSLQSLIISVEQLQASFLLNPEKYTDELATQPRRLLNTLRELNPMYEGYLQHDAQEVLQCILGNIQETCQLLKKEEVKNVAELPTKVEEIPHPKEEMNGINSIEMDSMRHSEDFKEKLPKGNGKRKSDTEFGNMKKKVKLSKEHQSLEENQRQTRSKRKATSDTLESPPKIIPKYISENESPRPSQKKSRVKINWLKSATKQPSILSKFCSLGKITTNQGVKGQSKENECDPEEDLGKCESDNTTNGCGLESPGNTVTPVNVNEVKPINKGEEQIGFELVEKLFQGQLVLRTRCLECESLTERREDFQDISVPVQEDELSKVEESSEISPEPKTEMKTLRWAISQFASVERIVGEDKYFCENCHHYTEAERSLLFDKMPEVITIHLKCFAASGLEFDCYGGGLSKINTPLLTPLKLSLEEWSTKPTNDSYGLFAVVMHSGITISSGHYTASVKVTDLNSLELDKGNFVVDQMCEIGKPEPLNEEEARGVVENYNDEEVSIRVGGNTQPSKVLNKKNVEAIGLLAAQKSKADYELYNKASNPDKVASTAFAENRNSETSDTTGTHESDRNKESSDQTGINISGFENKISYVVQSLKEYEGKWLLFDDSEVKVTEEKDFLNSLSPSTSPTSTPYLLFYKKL
T1 sequence (Q8TAF3 whole entry partner): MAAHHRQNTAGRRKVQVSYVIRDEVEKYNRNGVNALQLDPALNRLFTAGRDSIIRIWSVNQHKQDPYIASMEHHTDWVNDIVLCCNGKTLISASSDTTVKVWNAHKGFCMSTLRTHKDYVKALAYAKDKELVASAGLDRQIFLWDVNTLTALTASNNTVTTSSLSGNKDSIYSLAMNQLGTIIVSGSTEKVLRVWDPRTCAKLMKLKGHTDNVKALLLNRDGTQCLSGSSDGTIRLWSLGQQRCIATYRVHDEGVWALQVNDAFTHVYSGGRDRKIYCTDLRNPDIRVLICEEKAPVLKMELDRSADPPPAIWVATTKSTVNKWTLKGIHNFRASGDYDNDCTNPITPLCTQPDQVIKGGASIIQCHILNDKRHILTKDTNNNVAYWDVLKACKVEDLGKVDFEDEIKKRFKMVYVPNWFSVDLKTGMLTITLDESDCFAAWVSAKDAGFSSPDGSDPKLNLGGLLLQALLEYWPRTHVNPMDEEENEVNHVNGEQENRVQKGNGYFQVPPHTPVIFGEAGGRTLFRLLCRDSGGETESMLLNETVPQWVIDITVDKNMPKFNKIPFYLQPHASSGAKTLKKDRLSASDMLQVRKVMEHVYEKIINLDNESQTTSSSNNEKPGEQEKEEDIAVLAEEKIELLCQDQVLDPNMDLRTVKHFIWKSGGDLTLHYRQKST

With `O=C1c2ccccc2C(=O)c2oc(-c3ccc(F)cc3)nc21` [Formula IV (527)] the “identified as inhibitor of USP1 in initial in vitro screening” value [1] was “inhibitors of USP1”, the “sensitization to the cytotoxic effects of MMC” value [2] was “sensitization of the HeLa cells” and the “gene conversion (cellular GFP), HR activity” value [3] was “dose-dependent decreased in gene conversion”.
